Key:
[1] = Competition of the tested compounds with DMSO for hydroxyl radicals; details: 100 μM compound, Fe3+/ascorbic acid, 30 min, 37°C; 100 µM
Procedure: 2.2.2.2 Competition of the tested compounds with DMSO for hydroxyl radicals
The hydroxyl radicals generated by the Fe ^3+ /ascorbic acid system, were detected according to Nash, by the determination of formaldehyde produced from the oxidation of DMSO. The reaction mixture contained EDTA (0.1 mM), Fe ^3+ (167 μM), DMSO (33 mM) in phosphate buffer (50 mM, pH 7.4), the tested compounds (concentration 0.1mM) and ascorbic acid (10 mM). After 30 min of incubation (37°C) the reaction was stopped with CCl3COOH (17% w/v) (Table 5). Trolox was used as a standard.
Superoxide (O2^-.) anion and hydroxyl radical (^.OH) are free radical species of potential importance. In the acidic conditions of ischemic brain, O2^-. is probably protonated to give HO2^-. species. Iron released from damaged brain cells is more likely to be readily available to catalyze the generation of OH radicals. Among the ROS, the hydroxyl (^•OH) free radical is possibly the most toxic, as it reacts with a number of biological important molecules. Polyunsaturated fatty acids are found in high concentrations in the CNS, and are particularly vulnerable by free radicals. Thus, we tried to test the ability of our compounds to scavenge hydroxyl radicals. […] All the derivatives of series 13 (except of 13i) present high antioxidant activity (80-100%) which is not able to be correlated with any specific structural characteristic since all contain a coumarin, a purine and an isoxazolyl moiery. […] It seems that the overall molar configuration influences the response. However, antioxidants with hydrophilic or lipophilic character are both needed to act as radical scavengers in the aqueous phase or as chain-breaking antioxidants in biological membranes.

[2] = target: T1, electric eel acetylcholinesterase (eeAChE) (Electrophorus electricus, UniProt O42275); assay: biochemical; assay type: biochemical; details: read-out: eeAChE IC50 μΜ
T1 construct: purchased Sigma
Text: (§1) 2.2.2.5 Inhibition Study on ChEs in vitro
(§2) In vitro inhibition of electric eel acetylcholinesterase (eeAChE; 463 U/mg, Sigma) and equine serum butyrylcholinesterase (esBChE; 13 U/mg, Sigma) was investigated with a 96-well plate procedure based on the classical Ellman’s spectrophotometric test, as already described.

soybean lipoxygenase = target: T2, soybean lipoxygenase (Glycine max, UniProt P08170); assay: Soybean lipoxygenase inhibition in vitro; assay type: biochemical; details: for IC50: read-out: LOX IC50 μΜ
T2 construct: purchased Sigma Chemical, Co. (St. Louis, MO, USA)
T2 sequence (P08170 1-839): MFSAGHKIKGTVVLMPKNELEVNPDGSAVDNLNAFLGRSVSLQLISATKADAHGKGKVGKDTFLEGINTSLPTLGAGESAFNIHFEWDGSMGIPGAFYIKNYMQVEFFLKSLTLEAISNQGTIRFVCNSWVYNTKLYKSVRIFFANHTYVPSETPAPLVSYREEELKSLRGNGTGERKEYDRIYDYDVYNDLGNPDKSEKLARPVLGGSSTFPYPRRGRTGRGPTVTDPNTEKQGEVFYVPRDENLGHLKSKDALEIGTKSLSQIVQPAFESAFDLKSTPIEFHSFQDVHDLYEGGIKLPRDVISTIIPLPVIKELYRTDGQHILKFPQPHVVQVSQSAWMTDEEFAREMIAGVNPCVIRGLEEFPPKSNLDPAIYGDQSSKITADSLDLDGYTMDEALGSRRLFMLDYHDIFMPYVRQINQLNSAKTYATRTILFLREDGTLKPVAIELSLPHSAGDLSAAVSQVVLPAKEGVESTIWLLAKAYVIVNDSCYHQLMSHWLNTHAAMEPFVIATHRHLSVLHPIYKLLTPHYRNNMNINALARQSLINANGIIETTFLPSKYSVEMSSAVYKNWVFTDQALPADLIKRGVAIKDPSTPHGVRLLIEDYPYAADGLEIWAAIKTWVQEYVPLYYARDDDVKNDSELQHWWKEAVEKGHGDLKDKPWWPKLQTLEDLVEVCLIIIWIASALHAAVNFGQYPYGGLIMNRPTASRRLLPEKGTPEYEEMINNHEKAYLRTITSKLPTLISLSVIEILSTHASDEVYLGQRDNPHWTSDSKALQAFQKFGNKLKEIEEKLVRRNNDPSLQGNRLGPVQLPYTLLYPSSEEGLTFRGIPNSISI

[3] = target: T3, equine serum butyrylcholinesterase (esBChE) (Equus caballus, UniProt P81908); assay: Inhibition of esBChE (Ellman's test); assay type: biochemical; details: read-out: esBChE % inhibn. @ 10 μΜ
T3 construct: purchased Sigma; host or cells: equine serum
Text: as §1, §2

rat monoamine oxidase A = target: T4, rat monoamine oxidase A (Rattus norvegicus, UniProt P21396); assay: Inhibition of MAO-A (spectrofluorimetric method); assay type: biochemical; details: 10 μM compound
T4 construct: from tissue
T4 sequence (P21396 1-526): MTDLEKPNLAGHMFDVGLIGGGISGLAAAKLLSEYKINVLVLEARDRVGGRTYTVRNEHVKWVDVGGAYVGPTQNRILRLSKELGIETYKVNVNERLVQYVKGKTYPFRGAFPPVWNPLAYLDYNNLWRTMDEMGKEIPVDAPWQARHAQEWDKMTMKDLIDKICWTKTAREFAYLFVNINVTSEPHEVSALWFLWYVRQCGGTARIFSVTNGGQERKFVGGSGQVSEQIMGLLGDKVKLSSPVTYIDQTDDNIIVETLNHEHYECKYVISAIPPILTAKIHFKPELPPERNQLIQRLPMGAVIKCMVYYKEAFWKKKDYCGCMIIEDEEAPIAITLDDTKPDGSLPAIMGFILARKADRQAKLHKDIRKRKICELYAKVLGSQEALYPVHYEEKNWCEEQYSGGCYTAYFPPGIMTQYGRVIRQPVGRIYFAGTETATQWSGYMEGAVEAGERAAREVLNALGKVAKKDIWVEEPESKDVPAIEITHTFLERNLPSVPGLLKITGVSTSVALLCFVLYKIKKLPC
Text: 2.2.2.6 Inhibition Study on MAOs in vitro
Inhibition of rat monoamine oxidase A and B was studied by means of a spectrofluorimetric method as previously detailed.

T1 sequence (O42275 24-633): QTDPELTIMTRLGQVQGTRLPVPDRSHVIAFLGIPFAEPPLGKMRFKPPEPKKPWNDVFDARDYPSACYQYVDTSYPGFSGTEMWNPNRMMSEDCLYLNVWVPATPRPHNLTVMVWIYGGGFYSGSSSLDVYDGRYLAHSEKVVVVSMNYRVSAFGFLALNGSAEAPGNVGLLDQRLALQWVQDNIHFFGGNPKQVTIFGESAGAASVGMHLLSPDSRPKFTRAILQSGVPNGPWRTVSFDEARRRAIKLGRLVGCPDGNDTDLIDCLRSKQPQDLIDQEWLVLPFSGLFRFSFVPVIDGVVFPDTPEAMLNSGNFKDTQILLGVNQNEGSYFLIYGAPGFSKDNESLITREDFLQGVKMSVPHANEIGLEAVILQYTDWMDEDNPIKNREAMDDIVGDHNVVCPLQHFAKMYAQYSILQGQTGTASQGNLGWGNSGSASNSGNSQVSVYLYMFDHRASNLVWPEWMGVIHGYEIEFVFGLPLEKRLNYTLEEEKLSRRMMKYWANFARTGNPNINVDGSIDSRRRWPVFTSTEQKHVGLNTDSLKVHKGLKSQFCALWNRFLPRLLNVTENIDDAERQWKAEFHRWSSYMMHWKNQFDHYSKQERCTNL
T3 sequence (P81908 whole entry): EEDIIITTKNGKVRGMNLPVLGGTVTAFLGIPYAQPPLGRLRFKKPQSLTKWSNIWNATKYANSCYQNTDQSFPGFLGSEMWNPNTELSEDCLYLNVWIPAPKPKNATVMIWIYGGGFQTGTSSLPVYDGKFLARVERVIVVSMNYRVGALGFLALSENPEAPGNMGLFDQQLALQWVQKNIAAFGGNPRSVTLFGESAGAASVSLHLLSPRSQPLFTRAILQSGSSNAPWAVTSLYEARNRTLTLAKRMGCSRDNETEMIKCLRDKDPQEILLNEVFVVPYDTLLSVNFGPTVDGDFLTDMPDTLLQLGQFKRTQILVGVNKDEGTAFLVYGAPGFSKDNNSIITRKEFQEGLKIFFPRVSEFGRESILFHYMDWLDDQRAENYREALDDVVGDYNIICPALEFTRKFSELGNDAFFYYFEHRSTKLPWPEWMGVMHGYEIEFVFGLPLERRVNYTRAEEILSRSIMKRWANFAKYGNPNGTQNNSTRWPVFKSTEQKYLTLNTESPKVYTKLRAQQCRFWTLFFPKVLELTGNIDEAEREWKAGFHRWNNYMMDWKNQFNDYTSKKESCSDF

| Compound | ∙ΟΗ % @ 100μΜ (hydroxyl radical scavenging, percent inhibition of formaldehyde production) [1] | IC50 [2] [µM] | IC50 (soybean lipoxygenase) [µM] | inhibition at 10 µM [3] [%] | MAO-A (%) @ 10μΜ (rat monoamine oxidase A) | %LOX @ 100μΜ (soybean lipoxygenase; 100 μM compound) |
| --- | --- | --- | --- | --- | --- | --- |
| O=c1cc(OCC2CC(Cn3cnc4c(N5CCCCC5)ncnc43)=NO2)c2ccccc2o1 (stereo not drawn) [4f] | did not present any activity and no | 1.4 | 53 | 36 | no | – |
| Cc1cc(=O)oc2ccc(OCC3=NOC(Cn4cnc5c(Cl)ncnc54)C3)cc12 (stereo not drawn) [11b] | did not present any activity and no | 5.9 | – | 8 | 15% | no |
| O=c1cc(OCc2cc(Cn3cnc4c(N5CCOCC5)ncnc43)no2)c2ccccc2o1 [13i] | did not present any activity and no | 5 | 76 | 18 | 6% | – |
